Assay results reported in ChEMBL document CHEMBL5465560, “Selectivity Literature for EUbOPEN Chemogenomic Library” (2024).

Columns and labels:
[1] = target: Serine/threonine-protein kinase Chk2 (Homo sapiens) (UniProt O96017); test: Selectivity interaction (Kinase panel (KiNativ target engagement assay in Jurkat cells)) EUB0001635a CHEK2; type: cell-based; conditions: at 1 µM
[2] = target: Myosin-IIIa (Homo sapiens) (UniProt Q8NEV4); test: Selectivity interaction (KinomeScan (DiscoverX)) EUB0000595a MYO3A; conditions: at 10 µM
[3] = target: T1, Histone-lysine N-methyltransferase SUV39H1 (Homo sapiens) (UniProt O43463); conditions: at 1 µM
T1 sequence (whole entry): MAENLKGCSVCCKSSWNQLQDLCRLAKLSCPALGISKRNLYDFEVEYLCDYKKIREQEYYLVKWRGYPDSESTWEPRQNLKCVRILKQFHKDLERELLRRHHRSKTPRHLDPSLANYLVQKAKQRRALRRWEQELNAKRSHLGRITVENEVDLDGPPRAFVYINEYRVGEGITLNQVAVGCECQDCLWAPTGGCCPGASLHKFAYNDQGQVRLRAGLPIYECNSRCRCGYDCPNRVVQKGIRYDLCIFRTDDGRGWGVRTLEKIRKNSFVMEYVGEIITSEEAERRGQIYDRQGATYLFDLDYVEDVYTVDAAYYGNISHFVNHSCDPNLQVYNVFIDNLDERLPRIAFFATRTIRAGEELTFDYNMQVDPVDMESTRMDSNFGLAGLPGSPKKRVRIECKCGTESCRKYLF

[4] = target: Proto-oncogene tyrosine-protein kinase Src (Homo sapiens, UniProt P12931); test: Selectivity interaction (KinomeScan (DiscoverX)) EUB0000045b SRC
Chain of Proto-oncogene tyrosine-protein kinase Src (P12931 2-536 limits assumed): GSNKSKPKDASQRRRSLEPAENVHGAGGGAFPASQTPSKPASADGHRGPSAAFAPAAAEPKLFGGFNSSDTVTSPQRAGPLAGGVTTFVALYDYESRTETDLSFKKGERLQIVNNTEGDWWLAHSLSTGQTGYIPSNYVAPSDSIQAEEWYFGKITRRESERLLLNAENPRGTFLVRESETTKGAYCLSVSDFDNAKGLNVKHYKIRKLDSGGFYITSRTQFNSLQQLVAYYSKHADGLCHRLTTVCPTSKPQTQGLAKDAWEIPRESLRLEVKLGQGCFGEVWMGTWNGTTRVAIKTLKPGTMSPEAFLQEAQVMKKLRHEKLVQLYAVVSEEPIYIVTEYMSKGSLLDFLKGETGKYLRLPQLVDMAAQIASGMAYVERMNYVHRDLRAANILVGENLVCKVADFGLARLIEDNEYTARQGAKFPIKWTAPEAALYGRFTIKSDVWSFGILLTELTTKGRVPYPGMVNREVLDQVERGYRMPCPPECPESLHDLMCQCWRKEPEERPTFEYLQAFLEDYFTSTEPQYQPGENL

[5] = target: T2, Serine/threonine-protein kinase PLK2 (Homo sapiens, UniProt Q9NYY3); test: Selectivity interaction (KinomeScan (DiscoverX)) EUB0001079a PLK2; conditions: at 1 µM
T2 sequence (Q9NYY3 whole entry, looked up): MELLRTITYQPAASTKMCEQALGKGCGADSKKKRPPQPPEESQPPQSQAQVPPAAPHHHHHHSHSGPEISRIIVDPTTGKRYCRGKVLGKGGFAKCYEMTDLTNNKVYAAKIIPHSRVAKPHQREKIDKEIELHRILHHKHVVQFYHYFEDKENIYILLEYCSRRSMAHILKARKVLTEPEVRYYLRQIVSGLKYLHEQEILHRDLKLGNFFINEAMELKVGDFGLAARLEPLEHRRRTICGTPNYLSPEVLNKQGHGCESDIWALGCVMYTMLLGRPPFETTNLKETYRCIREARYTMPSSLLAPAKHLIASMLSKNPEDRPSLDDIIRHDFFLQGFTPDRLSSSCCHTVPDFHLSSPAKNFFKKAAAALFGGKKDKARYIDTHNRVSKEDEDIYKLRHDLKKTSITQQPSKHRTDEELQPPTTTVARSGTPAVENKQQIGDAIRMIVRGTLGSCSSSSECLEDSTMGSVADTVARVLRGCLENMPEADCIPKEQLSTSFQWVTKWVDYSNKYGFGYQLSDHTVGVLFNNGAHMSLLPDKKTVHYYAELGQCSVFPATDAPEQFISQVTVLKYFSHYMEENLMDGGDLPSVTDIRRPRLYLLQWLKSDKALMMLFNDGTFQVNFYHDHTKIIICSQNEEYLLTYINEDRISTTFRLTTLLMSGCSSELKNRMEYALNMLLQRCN

[6] = target: Vasopressin V1a receptor (Homo sapiens) (UniProt P37288); test: Selectivity interaction (Panel of non-epigenetic targets (kinases, GPCRs, ion channels, and transporters, Eurofins) ) EUB0000271b AVPR1A; conditions: at 1 µM
[7] = target: Insulin-like growth factor 1 receptor (Homo sapiens, UniProt P08069); test: Selectivity interaction (KinomeScan (DiscoverX)) EUB0001049a IGF1R; conditions: at 1 µM
[8] = target: Angiopoietin-1 receptor (Homo sapiens) (UniProt Q02763); test: Selectivity interaction (Millipore kinase profiler) EUB0000124b TEK; conditions: at 10 µM
Chain of Angiopoietin-1 receptor (Homo sapiens) (Q02763 whole entry): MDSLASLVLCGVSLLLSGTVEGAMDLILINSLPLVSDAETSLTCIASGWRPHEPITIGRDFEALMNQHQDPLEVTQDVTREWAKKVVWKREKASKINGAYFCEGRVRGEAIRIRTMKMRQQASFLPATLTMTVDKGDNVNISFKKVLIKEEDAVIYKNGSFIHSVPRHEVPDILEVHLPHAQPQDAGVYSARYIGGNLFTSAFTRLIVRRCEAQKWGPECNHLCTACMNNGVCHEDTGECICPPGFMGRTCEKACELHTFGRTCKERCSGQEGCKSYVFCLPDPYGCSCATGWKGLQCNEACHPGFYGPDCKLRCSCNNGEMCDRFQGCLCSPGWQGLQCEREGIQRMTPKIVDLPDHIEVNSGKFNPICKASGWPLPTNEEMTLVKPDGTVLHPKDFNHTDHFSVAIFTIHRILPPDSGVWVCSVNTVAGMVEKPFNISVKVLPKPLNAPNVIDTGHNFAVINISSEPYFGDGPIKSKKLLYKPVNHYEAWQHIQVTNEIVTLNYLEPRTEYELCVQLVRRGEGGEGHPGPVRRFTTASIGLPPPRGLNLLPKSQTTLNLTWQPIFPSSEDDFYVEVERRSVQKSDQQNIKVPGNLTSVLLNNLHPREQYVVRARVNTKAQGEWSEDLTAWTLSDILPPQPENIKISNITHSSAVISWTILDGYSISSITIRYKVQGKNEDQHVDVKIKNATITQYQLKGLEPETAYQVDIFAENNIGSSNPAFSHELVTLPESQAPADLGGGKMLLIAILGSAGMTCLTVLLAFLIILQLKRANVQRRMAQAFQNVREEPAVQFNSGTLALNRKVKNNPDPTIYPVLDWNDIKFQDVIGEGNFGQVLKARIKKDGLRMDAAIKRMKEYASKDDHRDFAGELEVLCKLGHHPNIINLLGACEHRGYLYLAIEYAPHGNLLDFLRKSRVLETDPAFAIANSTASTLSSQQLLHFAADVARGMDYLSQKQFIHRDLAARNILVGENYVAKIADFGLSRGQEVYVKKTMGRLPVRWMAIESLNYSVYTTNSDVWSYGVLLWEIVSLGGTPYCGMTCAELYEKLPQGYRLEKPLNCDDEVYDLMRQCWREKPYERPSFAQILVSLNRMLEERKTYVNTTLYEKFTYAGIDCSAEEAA

[9] = target: T3, Serine/threonine-protein kinase tousled-like 1 (Homo sapiens) (UniProt Q9UKI8); test: Selectivity interaction (ProQinase) EUB0000171b TLK1
T3 sequence (whole entry): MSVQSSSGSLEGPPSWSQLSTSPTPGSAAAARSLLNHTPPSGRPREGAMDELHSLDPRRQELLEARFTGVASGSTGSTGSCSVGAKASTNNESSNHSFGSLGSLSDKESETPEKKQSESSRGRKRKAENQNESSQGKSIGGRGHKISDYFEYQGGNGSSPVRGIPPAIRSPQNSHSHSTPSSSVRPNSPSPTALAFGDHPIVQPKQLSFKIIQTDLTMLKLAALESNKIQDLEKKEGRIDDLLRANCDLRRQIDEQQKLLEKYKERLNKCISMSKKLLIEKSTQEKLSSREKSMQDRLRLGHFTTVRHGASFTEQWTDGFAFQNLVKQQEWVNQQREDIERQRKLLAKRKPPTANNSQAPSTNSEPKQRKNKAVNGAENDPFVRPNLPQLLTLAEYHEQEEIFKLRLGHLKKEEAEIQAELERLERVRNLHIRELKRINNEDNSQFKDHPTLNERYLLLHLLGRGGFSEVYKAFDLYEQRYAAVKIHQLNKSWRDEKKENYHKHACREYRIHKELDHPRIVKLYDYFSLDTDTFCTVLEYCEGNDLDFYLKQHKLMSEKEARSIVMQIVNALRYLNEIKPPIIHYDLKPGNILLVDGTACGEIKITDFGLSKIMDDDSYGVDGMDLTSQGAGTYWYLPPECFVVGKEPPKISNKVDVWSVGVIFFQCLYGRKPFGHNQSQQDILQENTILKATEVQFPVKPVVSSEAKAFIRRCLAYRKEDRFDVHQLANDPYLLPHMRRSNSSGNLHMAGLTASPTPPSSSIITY

[10] = target: T4, Serine/threonine-protein kinase Chk1 (Homo sapiens) (UniProt O14757); test: Selectivity interaction (ProQinase) EUB0000171b CHEK1
T4 sequence (whole entry): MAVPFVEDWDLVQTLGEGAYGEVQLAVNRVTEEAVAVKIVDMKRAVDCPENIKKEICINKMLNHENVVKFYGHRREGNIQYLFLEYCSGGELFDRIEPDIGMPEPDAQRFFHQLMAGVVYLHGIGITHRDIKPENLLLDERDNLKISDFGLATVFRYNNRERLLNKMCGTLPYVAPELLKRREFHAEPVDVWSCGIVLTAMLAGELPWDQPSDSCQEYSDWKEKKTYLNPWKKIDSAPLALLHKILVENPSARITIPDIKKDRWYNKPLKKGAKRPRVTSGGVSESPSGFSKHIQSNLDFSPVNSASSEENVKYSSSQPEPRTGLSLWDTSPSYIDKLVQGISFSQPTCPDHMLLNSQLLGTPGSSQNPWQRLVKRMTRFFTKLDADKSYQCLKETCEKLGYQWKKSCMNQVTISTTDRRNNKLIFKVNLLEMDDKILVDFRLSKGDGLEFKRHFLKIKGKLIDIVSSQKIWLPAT

[11] = target: CDC7/DBF4 (Cell division cycle 7-related protein kinase/Activator of S phase kinase) (Homo sapiens) (UniProt Q9UBU7+O00311); test: Selectivity interaction (ProQinase) EUB0000171b CDC7; type: protein-complex assay
Chain of CDC7/DBF4 (Cell division cycle 7-related protein kinase/Activator of S phase kinase) (Homo sapiens) (O00311 whole entry, looked up): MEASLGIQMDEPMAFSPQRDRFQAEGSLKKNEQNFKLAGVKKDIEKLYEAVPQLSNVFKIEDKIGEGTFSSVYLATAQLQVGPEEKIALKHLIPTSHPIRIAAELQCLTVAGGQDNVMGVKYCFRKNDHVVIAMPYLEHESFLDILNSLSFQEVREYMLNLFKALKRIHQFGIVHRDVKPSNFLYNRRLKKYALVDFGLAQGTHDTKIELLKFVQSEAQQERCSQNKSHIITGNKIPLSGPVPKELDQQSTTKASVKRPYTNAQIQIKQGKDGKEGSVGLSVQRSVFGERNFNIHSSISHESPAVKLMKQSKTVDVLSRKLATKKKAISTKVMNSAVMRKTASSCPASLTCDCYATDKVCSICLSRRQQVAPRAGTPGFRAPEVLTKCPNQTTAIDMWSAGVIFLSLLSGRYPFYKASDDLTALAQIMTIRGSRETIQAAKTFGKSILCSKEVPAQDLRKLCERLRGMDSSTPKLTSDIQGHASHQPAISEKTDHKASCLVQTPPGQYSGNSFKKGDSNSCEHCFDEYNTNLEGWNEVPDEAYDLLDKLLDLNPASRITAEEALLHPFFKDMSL
Chain of CDC7/DBF4 (Cell division cycle 7-related protein kinase/Activator of S phase kinase) (Homo sapiens) (Q9UBU7 whole entry, looked up): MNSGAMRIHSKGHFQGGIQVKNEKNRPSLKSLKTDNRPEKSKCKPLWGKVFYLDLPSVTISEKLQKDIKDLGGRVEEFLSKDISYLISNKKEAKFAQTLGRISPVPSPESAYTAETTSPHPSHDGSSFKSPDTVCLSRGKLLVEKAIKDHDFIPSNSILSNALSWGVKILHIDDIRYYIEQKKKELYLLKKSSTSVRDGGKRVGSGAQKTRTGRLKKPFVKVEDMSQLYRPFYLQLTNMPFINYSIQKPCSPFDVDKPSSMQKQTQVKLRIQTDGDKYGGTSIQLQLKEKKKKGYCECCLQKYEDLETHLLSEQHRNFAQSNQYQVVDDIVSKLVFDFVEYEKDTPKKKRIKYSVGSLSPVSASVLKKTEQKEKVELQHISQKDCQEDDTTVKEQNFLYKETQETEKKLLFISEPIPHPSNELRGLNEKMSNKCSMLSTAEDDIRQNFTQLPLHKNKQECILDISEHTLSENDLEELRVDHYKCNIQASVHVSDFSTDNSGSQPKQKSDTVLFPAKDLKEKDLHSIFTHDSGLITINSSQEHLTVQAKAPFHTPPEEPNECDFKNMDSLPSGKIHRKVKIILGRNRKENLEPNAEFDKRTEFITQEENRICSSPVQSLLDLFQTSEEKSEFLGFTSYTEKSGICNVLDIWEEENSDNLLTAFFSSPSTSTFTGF

[12] = target: Tyrosine-protein kinase Fes/Fps (Homo sapiens) (UniProt P07332); test: Selectivity interaction (KinomeScan (DiscoverX)) EUB0000618a FES; conditions: at 10 µM
[13] = target: Mitogen-activated protein kinase 14 (Homo sapiens, UniProt Q16539); test: Selectivity interaction (ActivX KiNativ screen (kinase selectivity in THP-1 cell lysates)) EUB0000639a MAPK14; type: subcellular; conditions: lysate, at 5 µM
[14] = tested on: Fibroblast growth factor receptor 3 (Homo sapiens), P22607 [G697C]; test: (§1) Selectivity interaction (KinomeScan (DiscoverX)) EUB0000655a FGFR3; conditions: at 10 µM
[15] = target: Fibroblast growth factor receptor 3 (Homo sapiens, UniProt P22607); test: as §1; conditions: at 10 µM
Chain of Fibroblast growth factor receptor 3 (P22607 23-806 limits assumed): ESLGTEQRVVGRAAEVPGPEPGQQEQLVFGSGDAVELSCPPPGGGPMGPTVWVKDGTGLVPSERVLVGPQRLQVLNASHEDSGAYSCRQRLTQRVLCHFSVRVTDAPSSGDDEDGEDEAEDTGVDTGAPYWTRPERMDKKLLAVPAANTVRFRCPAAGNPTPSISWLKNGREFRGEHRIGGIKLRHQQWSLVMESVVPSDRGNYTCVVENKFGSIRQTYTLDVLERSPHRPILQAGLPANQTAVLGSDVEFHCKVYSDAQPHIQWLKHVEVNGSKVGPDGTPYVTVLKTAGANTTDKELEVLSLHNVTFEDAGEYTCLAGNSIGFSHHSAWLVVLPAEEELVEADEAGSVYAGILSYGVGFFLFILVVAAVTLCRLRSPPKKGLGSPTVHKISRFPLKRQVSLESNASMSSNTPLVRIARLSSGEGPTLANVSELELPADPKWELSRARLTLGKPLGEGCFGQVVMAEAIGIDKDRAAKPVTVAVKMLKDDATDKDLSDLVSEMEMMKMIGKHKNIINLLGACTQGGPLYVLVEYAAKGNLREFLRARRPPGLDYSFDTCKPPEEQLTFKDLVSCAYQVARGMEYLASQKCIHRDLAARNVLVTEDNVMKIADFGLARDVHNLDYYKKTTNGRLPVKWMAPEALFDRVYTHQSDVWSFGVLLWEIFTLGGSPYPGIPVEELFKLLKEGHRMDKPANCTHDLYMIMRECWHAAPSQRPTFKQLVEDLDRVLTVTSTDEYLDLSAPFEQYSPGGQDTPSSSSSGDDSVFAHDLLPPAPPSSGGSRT

[16] = target: T2, Serine/threonine-protein kinase PLK2; test: Selectivity interaction (KinomeScan (DiscoverX)) EUB0000092b PLK2; conditions: at 10 µM

Chain of Serine/threonine-protein kinase Chk2 (Homo sapiens) (O96017 whole entry): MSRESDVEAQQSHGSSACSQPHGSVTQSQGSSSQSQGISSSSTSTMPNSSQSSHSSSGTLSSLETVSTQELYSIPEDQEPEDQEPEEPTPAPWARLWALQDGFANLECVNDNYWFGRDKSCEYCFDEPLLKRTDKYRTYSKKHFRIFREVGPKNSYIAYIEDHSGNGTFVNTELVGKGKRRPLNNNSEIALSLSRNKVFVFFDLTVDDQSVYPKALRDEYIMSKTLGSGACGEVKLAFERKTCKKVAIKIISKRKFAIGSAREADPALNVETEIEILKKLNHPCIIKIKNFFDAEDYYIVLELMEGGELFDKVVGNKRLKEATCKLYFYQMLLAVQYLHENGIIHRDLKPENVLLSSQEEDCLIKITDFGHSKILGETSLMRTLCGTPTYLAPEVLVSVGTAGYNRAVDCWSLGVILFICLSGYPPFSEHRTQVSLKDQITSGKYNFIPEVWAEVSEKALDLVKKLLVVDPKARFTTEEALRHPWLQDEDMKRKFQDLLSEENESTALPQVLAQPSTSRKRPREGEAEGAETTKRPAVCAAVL

Compound: C=CC(=O)Nc1ccc(C(=O)Nc2[nH]nc3c2CN(C(=O)N[C@H](CN(C)C)c2ccccc2)C3(C)C)cc1
- % of engagement ([1]; Selectivity number of off-targets 0.0, Selectivity number of targets 233.0, Source Knowledge https://www.sciencedirect.com/science/article/pii/S2451945619300674?via%3Dihub): 5.2%
- % of engagement [1]: 4.4%

Compound: COCC(=O)NC/C=C/c1ccc2ncnc(Nc3ccc(Oc4ccc(C)nc4)c(C)c3)c2c1 [CP-724714]
- % of control [2]: 75%

Compound: CNCCN1CCC(c2cc(CN(C)C(=O)c3cccc(Oc4ccccc4)c3)ccn2)CC1
- % activity [3]: > 90%

Compound: C=CC(=O)Nc1cc(-n2c(=O)ccc3cnc4ccc(-c5ccc(NS(C)(=O)=O)cc5)cc4c32)ccc1C
- % of control ([4]; at 1 µM): 92%
- % of control ([4]; at 10 µM): 100%

Compound: Nc1cnc(N2CCc3cc(S(=O)(=O)Nc4c(F)cc(Cl)cc4F)cc(N4CCCC4=O)c32)nc1 [TP-020n]
- % of control [5]: 100%

Compound: Cc1cc(C)cc([C@@H]2c3cc(C)ccc3NC(=O)CN2C(=O)c2ccc(Br)s2)c1
- % of inhibition [6]: -5%

Compound: COc1cc(Nc2nc(C)cc(-c3cnn4nc(OC)ccc34)n2)cc(C(F)(F)F)c1
- % of control [7]: 91%

Compound: CC(=O)Nc1cccc(-n2c(=O)n(C3CC3)c(=O)c3c(Nc4ccc(I)cc4F)n(C)c(=O)c(C)c32)c1
- % of control [8]: 103%

Compound: C=CC(=O)Nc1cccc(C(=O)Nc2ccc(Nc3cc(-c4[nH]c(SC)nc4C)ccn3)cc2)c1
- % of control ([9]; at 1 µM): 97%
- % of control ([9]; at 5 µM): 90%
- % of control ([10]; at 1 µM): 94%
- % of control ([10]; at 5 µM): 100%
- % of control ([11]; at 1 µM): 94%
- % of control ([11]; at 5 µM): 89%

Compound: O[C@H]1CC[C@H](Nc2ncc3nc(Nc4c(F)cc(F)cc4F)n([C@H]4CCOC4)c3n2)CC1
- % of control [12]: 100%

Compound: CC[C@@H]1[C@H](F)C(=O)N[C@@H]1COc1nccc2cc(C(N)=O)c(OC)cc12 [ZIMLOVISERTIB]
- % of inhibition [13]: -3.8%

Compound: CN(C)CCOc1ccc(-c2nc(-c3ccncc3)c(-c3ccc4c(c3)CC/C4=N\O)[nH]2)cc1
- % of control [14]: 100%
- % of control [15]: 100%

Compound: CCC(=O)N1CCN(c2ccc(-n3c(=O)ccc4cnc5ccc(-c6cnc7ccccc7c6)cc5c43)cc2C(F)(F)F)CC1
- % of control [16]: 85%
